Test results: patent US20240366779A1, “SELECTIVE DRUG RELEASE FROM INTERNALIZED CONJUGATES OF BIOLOGICALLY ACTIVE COMPOUNDS” (priority 2021, published 2024)
Numbered stars: 1 amine (or outer) side, 2 acyl side, 3 side chain; on linkers, the order of the positions; unused ones are H or OH. Square brackets hold non-standard residues; d marks the D form. Ends that are not written are not given here. Peptide text beside a SMILES is read from it. * marks the point of attachment. Dolaproine = CO[C@@H]([C@@H]1CCCN1)[C@@H](C)C(=O)O; Propanoyl(3-maleimido) = O=C1C=CC(=O)N1CCC(=O)*; Dil = CC[C@H](C)[C@H](NC)[C@@H](CC(=O)O)OC; Gla = N[C@@H](CC(C(=O)O)C(=O)O)C(=O)O; PABC = O=C(OCc1ccc(N[*:1])cc1)[*:2]; X1 = C[C@@H](N*)[C@@H](O)c1ccccc1; Met(O) = CS(=O)CC[C@H](N)C(=O)O; Cit = NC(=O)NCCC[C@H](N)C(=O)O; NMeV = CN[C@H](C(=O)O)C(C)C; Aib = CC(C)(N)C(=O)O

What was measured:
[1] = test system: HPAFII cells; test: In vitro cytotoxicity of Ag1 ADCs (CellTiter-Glo, 96 h); assay type: cell-based; settings: Tables 3a and 3b, in words
Experimental: In vitro cytotoxicity. The cytotoxicity of a tripeptide-based Antibody Drug Conjugate was measured by a cell proliferation assay employing the protocol described in Promega Corp. Technical Bulletin TB288; and Mendoza et al., 2002, Cancer Res. 62:5485-5488), the methods of which are specifically incorporated by reference herein. Briefly, an aliquot of 40 μl of cell culture containing about 400 cells in medium is deposited in each well of a 384-well, opaque-walled plate. A 10 μL aliquot of free drug or Ligand-Drug Conjugate is added to the experimental wells and incubated for 96 h and are then equilibrated to room temperature for approximately 30 minutes whereupon a volume of CellTiter-Glo™ reagent equal to the volume of cell culture medium present in each well is added. The contents are mixed for 2 minutes on an orbital shaker to induce cell lysis and the plate is incubated at room temperature for 10 minutes to stabilize the luminescence signal for recordation.
The italicized values in Tables 3, 3a, and 3b indicate the percentage of cells remaining after 96 hr incubation at the maximum concentration of drug added. For convenience the numbering for the library members of Tables 2 and 2A are retained for the corresponding Drug linker compounds that are incorporated into the ADC of Tables 3, 3a, and 3b.

[2] = test system: neutrophils and reticulocytes (bone marrow); test: In vivo bone marrow toxicity of non-binding h00 conjugates (neutrophil and reticulocyte counts, tolerability); settings: rat, in words
Excerpt: Toxicity Determinations. Each tripeptide-based Drug Linker compound was reacted with a reduced non-binding antibody to provide a non-binding control ADC and injected i.v. into female Sprague Dawley rats at various concentrations. Animals were euthanized on day 4 or 28 post dose.
Having shown that ADC efficacy has been at least retained on replacing the dipeptide with most of the selected tripeptide sequences, differences in in vivo cytotoxicity against normal bone marrow tissue was explored by replacing the antibody targeting the Ag1 antigen with a non-binding control (h00) antibody. Each of the resulting non-targeting conjugates were then administered at 10 mg/Kg to rats, whose blood were analyzed at day 5 post-administration for neutrophil and reticulocyte counts as a proxy for bone marrow toxicity compared to sham treated animals. […]
A subset of non-targeting conjugates were administered at higher doses to rats to determine the impact on bone marrow depletion. Blood from the doses rats were analyzed at day 8 and day 22 post-administration for neutrophil (FIG. 2C) and reticulocyte (FIG. 3C) counts as a proxy for bone marrow toxicity compared to sham treated animals. […]

[3] = test system: tumor tissue homogenates from HPAF-II, Ramos, SK-Mel-5 and SU-DHL-4 xenograft models; test: Fluorescence assay: proteolysis of tripeptide library by tumor tissue homogenate; assay type: biochemical, mouse; settings: Table 1A; normalized fluorescence averaged across 4 tumor homogenates
Experimental: (§1) Fluorescence assay. To a 384 well plate was added a mixture of tumor or normal tissue homogenate and citrate buffer (100 mM, pH 4.5; 9 μL) followed by a fluorescently labelled library compound (1 μL; dissolved in 50% MeCN). The reaction was incubated at 37° C. and fluorescence (330 nm excitation, 450 nm emission) was detected several times over a 6-hr. period. The fluorescence fold change was determined by dividing the fluorescence value at each time point with the background fluorescence when no homogenate was added.
Tissue Homogenization. […]
The normalized fluorescence value for tumor homogenate proteolysis is an averaged value for tumor tissue homogenates derived from four mouse xenograft models.
That value was then normalized for each peptide in each homogenate by dividing it by the average value for that homogenate. […] The normalized tumor tissue values of Table 1 were then determined by averaging the normalized fluorescence value for each peptide across all 4 cancer homogenates that were tested. […] The normalized normal tissue values of Table 1 were similarly calculated using homogenized bone marrow. The Tumor/Normal ratios of Table 1A were determined by dividing the normalized tumor tissue values by the normalized normal tissue values.

[4] = test system: normal human bone marrow homogenate; test: Fluorescence assay: proteolysis of tripeptide library by normal tissue homogenate; assay type: biochemical; settings: Table 1A, normalized fluorescence at final time point (275-315 min)
Experimental: as §1
Tissue Homogenization. Normal tissue or tumor tissue from mouse xenografts were suspended in buffer (50 mM Tris, 150 mM KCl, pH 7.0) and added to a tube containing Matrix D lysing beads (mpbio). The tissue was homogenized with a Precellys™ 24 homogenizer. The homogenized sample was centrifuged at 1000×g for 10 min and the resulting supernatant was collected then frozen at −80° C. until further use.
The normalized normal tissue fluorescence values are from proteolysis by normal human bone marrow.
That value was then normalized for each peptide in each homogenate by dividing it by the average value for that homogenate. […] The normalized normal tissue values of Table 1 were similarly calculated using homogenized bone marrow.

[5] = target: T1, neutrophil elastase (Homo sapiens, UniProt P08246); test: Neutrophil elastase assay of 8-load ADCs (QToF MS); assay type: biochemical; settings: 8-load ADC, 37 C, 3 h; FIG. 6A
T1 sequence (P08246 30-267): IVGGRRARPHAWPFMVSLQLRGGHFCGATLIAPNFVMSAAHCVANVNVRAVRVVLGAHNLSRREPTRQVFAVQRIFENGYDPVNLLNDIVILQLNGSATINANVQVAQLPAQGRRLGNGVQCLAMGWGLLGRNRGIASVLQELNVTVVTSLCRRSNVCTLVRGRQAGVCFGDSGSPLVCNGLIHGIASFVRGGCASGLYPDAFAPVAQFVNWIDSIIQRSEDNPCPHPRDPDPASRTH
Experimental: To a mixture of 8-load ADC (5 ug), buffer (100 mM tris, 75 mM NaCl, pH 7.5; final concentration), and neutrophil elastase (100 ng) was added water to 20 uL. The reaction was incubated at 37 C for 3 h and then immediately analyzed by a QToF mass spectrometer.

[6] = test system: CD30-expressing ALCL and HL cell lines (DEL, Karpas, KMH2, L428, L540cy); test: In vitro cytotoxicity study of cAC10 ADCs (CellTiter-Glo, 96 hours); assay type: cell-based; settings: FIG. 39A-E
Experimental: ALCL and HL cell lines (DEL, DELBVR8F9, Karpas, KMH2, L428, AND L540cy) were plated in 150 uL complete growth media in 96-well, clear-bottomed, black-walled tissue culture treated plates (Corning). Cell plates were placed at 37° C. and 5% CO2 overnight to allow cells to equilibrate. The ADCs were thawed, and 4×8-point serial dilutions were prepared in RPMI-1640+10% fetal bovine serum (FBS). Fifty uL of each dilution were then added to each cell plate in triplicate. Treated cells were incubated at 37° C. and 5% CO2 for 96 hours. Cell viability was assayed using CellTiter-Glo® Reagent (PROMEGA). Raw data were analyzed in Graphpad Prism (San Diego, CA) using a nonlinear, 4-parameter curve fit model [Y=Bottom+(Top−Bottom)/(1+10^((Log EC50−X)*HillSlope))].

Compound	cytotoxicity relative to comparator dipeptide-based ADC (1) [1]	efficacy relative to comparator dipeptide-based ADC (1) [1]	other results
CC[C@H](C)[C@@H]([C@@H](CC(=O)N1CCC[C@H]1[C@H](OC)[C@@H](C)C(=O)N[C@H](C)[C@@H](O)c1ccccc1)OC)N(C)C(=O)[C@@H](NC(=O)[C@H](C(C)C)N(C)C(=O)OCc1ccc(NC(=O)[C@H](CCC(=O)O)NC(=O)[C@H](CO)NC(=O)[C@H](Cc2ccccc2)NC(=O)CCN2C(=O)C=CC2=O)cc1)C(C)C [Compound 30] ({Propanoyl(3-maleimido)}-FSE[PABC][NMeV]V[Dil][Dolaproine]-X1)	less cytotoxic	similarly efficacious	
CC[C@H](C)[C@@H]([C@@H](CC(=O)N1CCC[C@H]1[C@H](OC)[C@@H](C)C(=O)N[C@H](C)[C@@H](O)c1ccccc1)OC)N(C)C(=O)[C@@H](NC(=O)[C@H](C(C)C)N(C)C(=O)OCc1ccc(NC(=O)[C@H](CC(=O)O)NC(=O)[C@H](C)NC(=O)[C@@H](CC(C)C)NC(=O)CCN2C(=O)C=CC2=O)cc1)C(C)C [Compound 24] ({Propanoyl(3-maleimido)}-[dL]AD[PABC][NMeV]V[Dil][Dolaproine]-X1)	less cytotoxic	similarly efficacious	
CC[C@H](C)[C@@H]([C@@H](CC(=O)N1CCC[C@H]1[C@H](OC)[C@@H](C)C(=O)N[C@H](C)[C@@H](O)c1ccccc1)OC)N(C)C(=O)[C@@H](NC(=O)[C@H](C(C)C)N(C)C(=O)OCc1ccc(NC(=O)[C@H](CC(C(=O)O)C(=O)O)NC(=O)[C@H](C)NC(=O)[C@@H](CC(C)C)NC(=O)CCN2C(=O)C=CC2=O)cc1)C(C)C [Compound 26] ({Propanoyl(3-maleimido)}-[dL]A[Gla][PABC][NMeV]V[Dil][Dolaproine]-X1)	less cytotoxic	similarly efficacious	
CC[C@H](C)[C@@H]([C@@H](CC(=O)N1CCC[C@H]1[C@H](OC)[C@@H](C)C(=O)N[C@H](C)[C@@H](O)c1ccccc1)OC)N(C)C(=O)[C@@H](NC(=O)[C@H](C(C)C)N(C)C(=O)OCc1ccc(NC(=O)[C@H](CCC(=O)O)NC(=O)C(C)(C)NC(=O)[C@@H](CC(C)C)NC(=O)CCN2C(=O)C=CC2=O)cc1)C(C)C [compound 38] ({Propanoyl(3-maleimido)}-[dL][Aib]E[PABC][NMeV]V[Dil][Dolaproine]-X1)	less cytotoxic	less cytotoxic and efficacious	toxicity to bone marrow [2]: less toxic to rat bone marrow
[dL]-Leu-[Met(O)] [DLeu-Leu-Met(O)]			Normalized Tumor Tissue [3]: 1.70; Normalized Normal Tissue [4]: 0.66
CC[C@H](C)[C@@H]([C@@H](CC(=O)N1CCC[C@H]1[C@H](OC)[C@@H](C)C(=O)N[C@H](C)[C@@H](O)c1ccccc1)OC)N(C)C(=O)[C@@H](NC(=O)[C@H](C(C)C)N(C)C(=O)OCc1ccc(NC(=O)[C@H](CCC(=O)O)NC(=O)[C@H](C)NC(=O)[C@@H](CC(C)C)NC(=O)CCN2C(=O)C=CC2=O)cc1)C(C)C [compound 5, mp-dLAE-PABC-MMAE] ({Propanoyl(3-maleimido)}-[dL]AE[PABC][NMeV]V[Dil][Dolaproine]-X1)			percentage of drug cleaved from the heavy chain by neutrophil elastase [5]: lower than that found for non-targeted ADC 37
CC[C@H](C)[C@@H]([C@@H](CC(=O)N1CCC[C@H]1[C@H](OC)[C@@H](C)C(=O)N[C@H](C)[C@@H](O)c1ccccc1)OC)N(C)C(=O)[C@@H](NC(=O)[C@H](C(C)C)N(C)C(=O)OCc1ccc(NC(=O)[C@H](CCCNC(N)=O)NC(=O)[C@H](C)NC(=O)[C@@H](CC(C)C)NC(=O)CCN2C(=O)C=CC2=O)cc1)C(C)C [Compound 8] ({Propanoyl(3-maleimido)}-[dL]A[Cit][PABC][NMeV]V[Dil][Dolaproine]-X1)	less cytotoxic	similarly efficacious	
CC[C@H](C)[C@@H]([C@@H](CC(=O)N1CCC[C@H]1[C@H](OC)[C@@H](C)C(=O)N[C@H](C)[C@@H](O)c1ccccc1)OC)N(C)C(=O)[C@@H](NC(=O)[C@H](C(C)C)N(C)C(=O)OCc1ccc(NC(=O)[C@H](CCC(=O)O)NC(=O)[C@H](C)NC(=O)[C@@H](C)NC(=O)CCN2C(=O)C=CC2=O)cc1)C(C)C [Compound 22] ({Propanoyl(3-maleimido)}-[dA]AE[PABC][NMeV]V[Dil][Dolaproine]-X1)	less cytotoxic	similarly efficacious	
CC[C@H](C)[C@@H]([C@@H](CC(=O)N1CCC[C@H]1[C@H](OC)[C@@H](C)C(=O)N[C@H](C)[C@@H](O)c1ccccc1)OC)N(C)C(=O)[C@@H](NC(=O)[C@@H](NC)C(C)C)C(C)C [SGN-1010, MMAE] (H-[NMeV]V[Dil][Dolaproine]-X1)			cytotoxic activity (cell viability) [6]: all cell lines are sensitive
